This is an account of results in ChEMBL document CHEMBL1201862, “PubChem BioAssay data set” (2004).

Calls of active or inactive are those of the source.

Test [1] deals with T1, Leucine aminopeptidase (Plasmodium falciparum 3D7, UniProt Q8IL11).
T1 sequence (Q8IL11 whole entry): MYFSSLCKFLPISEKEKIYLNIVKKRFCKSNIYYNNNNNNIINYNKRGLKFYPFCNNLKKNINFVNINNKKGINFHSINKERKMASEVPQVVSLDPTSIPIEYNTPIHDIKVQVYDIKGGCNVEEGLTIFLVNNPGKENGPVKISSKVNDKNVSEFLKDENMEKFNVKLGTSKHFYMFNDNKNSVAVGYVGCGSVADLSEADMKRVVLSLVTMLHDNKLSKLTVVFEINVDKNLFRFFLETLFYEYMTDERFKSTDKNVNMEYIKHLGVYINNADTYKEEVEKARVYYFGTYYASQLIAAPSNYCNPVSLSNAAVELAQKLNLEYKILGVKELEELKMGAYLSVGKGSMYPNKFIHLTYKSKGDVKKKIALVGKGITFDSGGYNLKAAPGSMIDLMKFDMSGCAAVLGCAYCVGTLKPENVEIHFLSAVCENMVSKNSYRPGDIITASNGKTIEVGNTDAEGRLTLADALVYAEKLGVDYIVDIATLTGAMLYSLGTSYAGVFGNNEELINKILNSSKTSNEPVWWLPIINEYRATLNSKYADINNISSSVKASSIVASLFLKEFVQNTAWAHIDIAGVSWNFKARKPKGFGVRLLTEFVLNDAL
Description: P. falciparum M17LAP inhibitors, primary screen, biochemical, fluorogenic H-Leu-NHMec substrate, 1536-well (AID 1619). Format: functional.

The target in test [2] is Melanocortin receptor 4 (Homo sapiens, UniProt P32245). It counts as functional, cell-based.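 Further: Cell-based assay with luminescence read-out, confirmatory dose-response testing for agonist activity of biased ligands at MC4R; human U2OS cells with tagged receptor and beta-arrestin; potency of agonists that increase receptor coupling to beta-arrestin.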
Sequence of Melanocortin receptor 4 (P32245 whole entry): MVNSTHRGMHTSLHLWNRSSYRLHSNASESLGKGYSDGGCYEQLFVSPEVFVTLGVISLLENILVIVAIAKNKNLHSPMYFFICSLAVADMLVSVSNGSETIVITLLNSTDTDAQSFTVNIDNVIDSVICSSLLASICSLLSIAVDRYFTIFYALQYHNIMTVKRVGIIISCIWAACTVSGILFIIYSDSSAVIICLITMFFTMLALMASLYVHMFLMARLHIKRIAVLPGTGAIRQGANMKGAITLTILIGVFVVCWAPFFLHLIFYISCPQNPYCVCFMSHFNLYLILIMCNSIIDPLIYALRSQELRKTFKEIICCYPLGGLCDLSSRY
Test [3] concerns the target T2, Low molecular weight phosphotyrosine protein phosphatase (Homo sapiens, UniProt P24666).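 Further: Dose-response confirmation assay measuring inhibition of LMPTP enzyme activity by fluorescence intensity read-out.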
T2 sequence (P24666 whole entry): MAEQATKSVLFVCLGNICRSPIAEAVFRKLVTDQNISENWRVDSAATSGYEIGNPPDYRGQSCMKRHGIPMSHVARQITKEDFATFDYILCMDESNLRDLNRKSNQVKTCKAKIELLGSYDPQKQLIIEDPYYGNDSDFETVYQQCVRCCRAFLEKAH
It counts as functional. The note with it: read-out: IC50_Mean.

Test [4] relates to P388/ADR. Briefly: cells. The following applies: Mus musculus. Format: functional.
Test [5] has as its system P388. Briefly: cells. Format: functional. The note with it: Mus musculus.
In test [6] the test system is SN12K1. Briefly: cells. It counts as functional. The note with it: Homo sapiens.
Test [7] addresses T3, Apoptotic protease-activating factor 1 (Homo sapiens, UniProt O14727).
T3 sequence (O14727 whole entry): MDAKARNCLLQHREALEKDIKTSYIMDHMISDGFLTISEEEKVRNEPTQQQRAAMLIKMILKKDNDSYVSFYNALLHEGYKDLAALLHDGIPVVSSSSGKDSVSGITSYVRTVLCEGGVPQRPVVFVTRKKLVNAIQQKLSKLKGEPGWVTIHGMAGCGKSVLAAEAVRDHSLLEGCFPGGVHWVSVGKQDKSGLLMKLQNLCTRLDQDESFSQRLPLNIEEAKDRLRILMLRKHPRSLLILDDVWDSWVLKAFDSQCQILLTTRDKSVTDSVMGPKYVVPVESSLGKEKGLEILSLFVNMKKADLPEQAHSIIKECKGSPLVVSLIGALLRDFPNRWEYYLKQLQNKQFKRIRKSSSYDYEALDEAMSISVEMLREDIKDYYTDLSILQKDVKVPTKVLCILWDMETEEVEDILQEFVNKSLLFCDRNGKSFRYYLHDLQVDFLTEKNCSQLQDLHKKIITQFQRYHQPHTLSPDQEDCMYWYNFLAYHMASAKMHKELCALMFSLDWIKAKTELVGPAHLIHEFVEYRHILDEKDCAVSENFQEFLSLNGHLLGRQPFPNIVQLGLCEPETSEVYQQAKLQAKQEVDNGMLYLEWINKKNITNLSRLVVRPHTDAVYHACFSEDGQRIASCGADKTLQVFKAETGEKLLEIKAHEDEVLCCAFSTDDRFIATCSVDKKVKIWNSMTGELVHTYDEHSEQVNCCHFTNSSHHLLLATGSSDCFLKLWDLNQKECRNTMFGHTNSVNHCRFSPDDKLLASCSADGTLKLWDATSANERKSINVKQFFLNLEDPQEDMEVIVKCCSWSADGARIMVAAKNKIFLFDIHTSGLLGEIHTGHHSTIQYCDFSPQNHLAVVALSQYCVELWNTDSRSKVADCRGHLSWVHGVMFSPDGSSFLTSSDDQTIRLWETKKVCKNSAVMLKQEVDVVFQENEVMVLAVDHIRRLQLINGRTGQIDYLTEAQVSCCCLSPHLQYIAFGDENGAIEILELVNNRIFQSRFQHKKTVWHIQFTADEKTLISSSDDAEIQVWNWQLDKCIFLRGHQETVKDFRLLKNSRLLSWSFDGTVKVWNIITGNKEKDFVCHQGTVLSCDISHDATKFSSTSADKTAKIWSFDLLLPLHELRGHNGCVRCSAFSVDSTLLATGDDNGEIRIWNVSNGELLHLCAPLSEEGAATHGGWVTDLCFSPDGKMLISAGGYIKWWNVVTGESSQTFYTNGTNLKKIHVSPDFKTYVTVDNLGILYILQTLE
It counts as functional.

Test [8] has as its target T4, Bcl-2-related protein A1 (Mus musculus, UniProt Q07440).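 Further: confirmatory dose–response counterscreen on Bfl-1, used to check hits from a UBC13 polyubiquitin inhibitor campaign.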
T4 sequence (Q07440 whole entry): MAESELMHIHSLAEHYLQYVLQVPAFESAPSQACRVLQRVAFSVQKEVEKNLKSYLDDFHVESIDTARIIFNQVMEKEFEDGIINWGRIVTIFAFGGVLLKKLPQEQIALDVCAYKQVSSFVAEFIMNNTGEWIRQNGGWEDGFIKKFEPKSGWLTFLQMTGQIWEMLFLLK
It counts as functional.

Test [9] addresses T5, Ubiquitin-conjugating enzyme E2 N (Homo sapiens, UniProt P61088).
T5 sequence (P61088 whole entry): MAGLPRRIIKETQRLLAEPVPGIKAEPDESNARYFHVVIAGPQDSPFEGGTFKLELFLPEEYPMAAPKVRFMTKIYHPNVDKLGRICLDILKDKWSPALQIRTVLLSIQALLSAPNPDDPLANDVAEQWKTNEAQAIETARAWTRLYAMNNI
It counts as functional.

Test [10] is described as follows: non-specific 3'UTR reporter inhibition in Clone20-Shn3RL – cell-based, Renilla luciferase, cherry-picked, counter-screen for Shn3 inhibitor project, dose response (AID 624133). It counts as functional. In general terms: A counterscreen serves to expose hits that act by an unwanted route or on another target.
A short description of test [11]: loss of viability in HepG2 cells – cell-based, CellTiter-Glo, cherry-picked, cytotoxicity control for Shn3 inhibitor project, dose response (AID 624134). It counts as functional. Background: ATP-based viability assays read luminescence as a measure of living cells.
The target of test [12] is T5, Ubiquitin-conjugating enzyme E2 N. It counts as functional. The source holds these as a separate data set.
Test [13] can be described thus: reduction of Shn3 3'UTR-driven luciferase in osteoblasts – cell-based, Clone20 osteoblasts, firefly luciferase, cherry-picked, dose response (AID 624132).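 Further: firefly luciferase luminescence from reporter carrying the Shn3 3'UTR in osteoblasts.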 It counts as functional.
Test [14] in a line: Fluorescence-based cell-based high throughput dose response assay for inhibitors of the interaction of nucleotide-binding oligomerization domain containing 2 (NOD2) and the receptor-interacting serine-threonine kinase 2 (RIPK2). It counts as functional. The following applies: Homo sapiens.
In test [15] the target is T6, Protein RecA (Mycobacterium tuberculosis, UniProt P9WHJ3).
T6 sequence (P9WHJ3 whole entry): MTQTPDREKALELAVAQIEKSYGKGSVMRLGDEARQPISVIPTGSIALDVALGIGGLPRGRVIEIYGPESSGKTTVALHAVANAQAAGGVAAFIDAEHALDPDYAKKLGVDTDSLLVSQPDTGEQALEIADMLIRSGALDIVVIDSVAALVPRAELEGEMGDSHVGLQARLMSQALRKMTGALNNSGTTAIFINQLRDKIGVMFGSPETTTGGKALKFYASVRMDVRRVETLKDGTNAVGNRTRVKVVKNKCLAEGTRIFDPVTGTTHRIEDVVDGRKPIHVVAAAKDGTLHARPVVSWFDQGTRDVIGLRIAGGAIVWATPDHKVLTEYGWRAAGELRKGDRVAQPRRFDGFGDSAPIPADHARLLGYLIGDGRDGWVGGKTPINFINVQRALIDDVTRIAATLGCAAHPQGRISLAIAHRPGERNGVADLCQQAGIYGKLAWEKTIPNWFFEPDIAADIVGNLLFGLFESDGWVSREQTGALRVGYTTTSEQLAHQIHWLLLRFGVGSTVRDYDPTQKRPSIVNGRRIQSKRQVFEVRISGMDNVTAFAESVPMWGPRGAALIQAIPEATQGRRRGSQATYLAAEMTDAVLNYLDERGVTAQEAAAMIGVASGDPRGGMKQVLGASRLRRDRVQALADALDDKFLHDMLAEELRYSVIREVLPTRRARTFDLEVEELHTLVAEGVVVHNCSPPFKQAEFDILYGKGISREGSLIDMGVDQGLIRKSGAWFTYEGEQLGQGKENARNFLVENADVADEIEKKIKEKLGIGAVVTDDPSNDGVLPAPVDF
Description: Fluorescence Cell-Free Homogeneous Dose Retest to Identify Inhibitors of RecA-Intein Splicing Activity. [Related pubchem assays (depositor defined):AID2097, AID2223, AID489010, AID492950]. Format: functional.

The target of test [16] is T7, Replicative DNA helicase DnaB (Mycobacterium tuberculosis, UniProt P9WMR3).
T7 sequence (P9WMR3 whole entry): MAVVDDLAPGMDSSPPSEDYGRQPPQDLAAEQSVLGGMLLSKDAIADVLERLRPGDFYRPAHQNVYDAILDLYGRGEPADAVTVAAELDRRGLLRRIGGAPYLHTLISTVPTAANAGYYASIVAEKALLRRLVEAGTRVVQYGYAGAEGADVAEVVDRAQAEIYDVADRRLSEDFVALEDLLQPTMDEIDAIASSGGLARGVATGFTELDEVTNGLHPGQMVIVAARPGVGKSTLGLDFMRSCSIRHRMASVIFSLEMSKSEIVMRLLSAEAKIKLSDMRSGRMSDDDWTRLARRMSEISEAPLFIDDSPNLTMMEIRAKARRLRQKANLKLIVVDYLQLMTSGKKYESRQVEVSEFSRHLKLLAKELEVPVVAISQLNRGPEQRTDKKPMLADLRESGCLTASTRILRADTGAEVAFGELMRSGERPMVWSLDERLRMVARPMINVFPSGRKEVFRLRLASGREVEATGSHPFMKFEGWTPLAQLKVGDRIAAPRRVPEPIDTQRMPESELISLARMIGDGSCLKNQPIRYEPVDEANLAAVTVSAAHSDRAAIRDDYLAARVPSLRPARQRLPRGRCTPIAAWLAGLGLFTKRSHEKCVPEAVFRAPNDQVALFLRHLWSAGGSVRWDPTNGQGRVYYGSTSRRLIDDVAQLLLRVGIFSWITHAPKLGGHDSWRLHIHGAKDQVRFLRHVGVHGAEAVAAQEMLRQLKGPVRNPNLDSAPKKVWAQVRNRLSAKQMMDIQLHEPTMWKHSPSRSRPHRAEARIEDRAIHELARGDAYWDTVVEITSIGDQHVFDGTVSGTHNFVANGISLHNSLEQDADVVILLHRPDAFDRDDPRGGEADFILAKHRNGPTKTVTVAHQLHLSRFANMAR
Briefly: DnaB intein splicing inhibitors, dose response, biochemical, cell-free fluorescence (AID 449749). It counts as functional.

The target of test [17] is Photoreceptor-specific nuclear receptor (Homo sapiens, UniProt Q9Y5X4). It counts as functional, cell-based.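 Further: CHO-S cells with Gal4-NCOR and VP16-NR2E3 two-hybrid luciferase reporter.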
Sequence of Photoreceptor-specific nuclear receptor (Q9Y5X4 whole entry, the tested form may be a part): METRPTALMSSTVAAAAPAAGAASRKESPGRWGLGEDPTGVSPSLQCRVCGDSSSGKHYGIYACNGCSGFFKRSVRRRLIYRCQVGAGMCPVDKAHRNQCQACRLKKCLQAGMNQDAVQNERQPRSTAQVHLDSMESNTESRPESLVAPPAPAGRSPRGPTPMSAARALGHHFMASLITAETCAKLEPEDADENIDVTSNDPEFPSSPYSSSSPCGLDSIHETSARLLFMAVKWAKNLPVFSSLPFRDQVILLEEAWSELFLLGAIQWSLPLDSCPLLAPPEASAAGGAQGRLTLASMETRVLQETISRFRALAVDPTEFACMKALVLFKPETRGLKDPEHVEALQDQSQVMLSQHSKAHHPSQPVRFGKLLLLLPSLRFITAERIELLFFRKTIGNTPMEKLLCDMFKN

Take `C/C(=C\c1ccco1)C1C(C#N)=C(N)Oc2[nH]nc(-c3ccc(C)cc3)c21` (stereo unspecified): the IC50 in test [1] is 132 µM (active). In test [2], the EC50 (usually the concentration at which the effect is half-maximal) is > 89.2 µM (inactive).

As for `Cc1nnc(C)c2c(C)n(-c3ccc4ncccc4c3)c(C)c12`, in test [3], the IC50 is 45.2 µM (inactive).

As for `Nc1ccn(C2OC(COP(=O)(O)Oc3ccccc3)C(O)C2O)c(=O)n1` (stereo unspecified), the GI50 (usually the concentration that inhibits growth by half) in [4] was 0.675 µM (active); in test [5] it was 0.264 µM (active); in [6], 5.56 µM (inactive).

As to `CC(=O)Nc1cc(-c2cccnc2)cn2c(-c3cccc(C(F)(F)F)c3)cnc12`, the EC50 in test [2] is 84.1 µM (inactive).

`CN(Cc1ccc(Cl)c(Cl)c1)C(=O)c1cccc(S(=O)(=O)N2CCN(Cc3ccccc3)CC2)c1`: the IC50 in test [7] was 42.7 µM (active); in test [8] it was > 20 µM (inactive); in [9] it was 12.5 µM (active); in [12], 18.4 µM (active). Also, the AC50 – broadly, the midpoint of the concentration-response curve, whichever way the signal moves – in [10] is 7.2 µM (active); in test [11], > 70 µM (inactive); in [13], 3.47 µM (active).

Consider `COC1=CC(=O)c2c(c(O)c3oc4cc(OC)cc(C)c4c(=O)c3c2O)C1=O` [BIKAVERIN], for which the GI50 in test [4] is 1.04 µM (active); in test [5] it was 0.695 µM (active); in [6], 0.422 µM (active).

Take `CN(C)CCC(=O)C(Cc1ccccc1)c1ccccc1` (stereo unspecified): the IC50 was 4.6 µM (active) in [14], > 20 µM (inactive) in [8], > 20 µM (inactive) in test [9] and 13.3 µM (active) in test [12].

On to `CC(=O)N(C1=C(N2CCOCC2)C(=O)c2ccccc2C1=O)c1ccc(C(=O)O)cc1`, for which the EC50 in test [15] was 1.01 µM (active). Also, the IC50 in test [7] was 26.2 µM (active). Besides, in [16], the AC50 was 16.7 µM (active).

Consider `CN1C(=O)c2ccccc2NC(=O)c2cnn(C)c21`, for which the GI50 in test [4], in test [5] and in test [6] was > 100 µM (inactive) each time.

Regarding `CC(=O)c1c(C)[nH]c(C(=O)OCC(=O)c2ccc(Br)cc2)c1C`, the IC50 in test [17] was 3.35 µM (active).

With `CCn1cc(C(=O)O)c(=O)c2cc(F)c(N3CCN(C(=S)NC(=O)c4ccccc4Cl)CC3)cc21`, in [3], the IC50 is 5.84 µM (active).

As to `COc1ccc2nc3ccccc3c(NCCN(C)CCCl)c2c1`, the GI50 in test [4] is 0.424 µM (active); in test [5], 0.256 µM (active); in test [6], 0.684 µM (active).

With `CN(CC(=O)Nc1ccccc1Cl)C(=O)c1cccc(S(=O)(=O)N2CCN(c3ccc(F)cc3)CC2)c1`, the half-maximal activity concentration (AC50) in [10] is 3.53 µM (active); in test [11], > 70 µM (inactive); in test [13], 3.62 µM (active). Further, the IC50 in test [17] is 8.34 µM (active).
